Common to all, as to assay: NCI-60 cell line screen, 48 h
Test [1] concerns 786-0 renal.
In test [2] the test system is BT-549 breast.
Test [3] deals with HS 578T breast.
For test [4], the system named is MDA-MB-435.
Test [5] deals with OVCAR-3 ovarian.
The test system of test [6] is SK-OV-3 ovarian.
The subject of test [7] is SNB-19 CNS.

Structures are written as SMILES.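 Results reflect a 48-hour exposure of cells in 96-well plates to compound at five concentrations. Abbreviation: GI50, concentration required for 50% inhibition of growth. TGI denotes the concentration required for complete inhibition of growth.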 Some results are limits rather than exact numbers.

`COc1ccc(N=c2nc3sc4cc(Cl)ccc4n3c(N)c2C#N)cc1`: the GI50 in test [1] was 2.43 µM; in test [2], 5.17 µM; in test [3], 1.27 µM; in test [4], 3.98 µM; in test [5] it was 9.66 µM; in test [6], 5.9 µM. Moreover, the GI50 in test [7] is 20.7 µM. Also, the TGI in test [1] is 5.47 µM; in test [2] it was 98 µM; in test [4] it was > 100 µM; in test [5], 44.8 µM; in test [6] it was > 100 µM; in test [7], > 100 µM.
For the compound `CC(C)(C)OC(=O)NCCCCCCCCCCCCn1c2c(c3ccccc3c1=O)C(=O)c1ccccc1-2`, the GI50 in test [1] was 18.3 µM; in test [2], 38.5 µM; in test [3] it was 11.9 µM; in test [4], > 100 µM; in test [5], > 100 µM; in test [6], 22.9 µM. Also, the GI50 in test [7] was 32 µM. Also, the TGI in test [1] was 50.6 µM; in test [2], > 100 µM; in test [3], 63.1 µM; in test [4], > 100 µM; in test [5], > 100 µM; in test [6], 74.1 µM. The compound further had a TGI in test [7] of 83.5 µM.
For the compound `Cn1cc(-c2csc(-c3ccc(Cl)cc3)n2)c2cccnc21`, the GI50 was 16.3 µM in test [1]; 18.6 µM in test [2]; 12 µM in test [3]; 12.8 µM in test [4]; 17.1 µM in test [5]; 15.9 µM in test [6]. In addition, the GI50 in test [7] is 13.8 µM. For the same compound, the TGI in test [1] was 32.4 µM; in test [2], 51.9 µM; in test [3], 34.4 µM; in test [4] it was 33.6 µM; in test [5], 35.6 µM; in test [6], 39.2 µM. Besides, in test [7], the TGI stood at 30.2 µM.
On to `COc1ccc2c(c1)[n+](=O)c(/C=C/C(=O)c1cc(OC)c(OC)c(OC)c1)c(C)n2[O-]`, for which the GI50 was 13.7 µM in test [1]; 6.11 µM in test [2]; 4.72 µM in test [3]; 6.65 µM in test [4]; 2.04 µM in test [5]; 23.9 µM in test [6]. For the same compound, the GI50 in test [7] was 29.7 µM. Also, the TGI in test [1] is 50.3 µM; in test [2], 65 µM; in test [3], 46.6 µM; in test [4] it was > 100 µM; in test [5], 11.7 µM; in test [6], 92.8 µM. For the same compound, the TGI in test [7] is > 100 µM.
With `CCN(CC)c1ccc(/C=N/N=C(N)N)cc1`, the GI50 in test [1] is 6.2 µM; in test [2], 6.84 µM; in test [3] it was 3.68 µM; in test [4], 0.668 µM; in test [5], 2.21 µM; in test [6], 3.47 µM. Besides, the GI50 in test [7] is 3.57 µM. Also, the TGI in test [1] turned out to be 20.7 µM; in test [2], 33.9 µM; in test [3], 26.5 µM; in test [4], 3.04 µM; in test [5] it was 4.91 µM; in test [6], 14 µM. Besides, the TGI in test [7] was 23.8 µM.
For the compound `COc1c(OC2OC(C)C(O)C(O)C2O)c(OC)c2oc(-c3ccc(O)cc3)cc(=O)c2c1O` (stereo unspecified), the GI50 in test [1] was 50.7 µM; in test [2] it was 25.4 µM; in test [3] it was 29.8 µM; in test [4] it was 29.1 µM; in test [5], 21.5 µM; in test [6] it was 86.3 µM. In addition, the GI50 in test [7] was 45.2 µM. Moreover, the TGI is > 100 µM in test [1]; 72.6 µM in test [2]; > 100 µM in test [3]; 78.5 µM in test [4]; 64.4 µM in test [5]; > 100 µM in test [6]. Moreover, in test [7], the TGI was > 100 µM.
`Fc1ccc(-c2ncn(C3CCNCC3)c2-c2ccnc(Oc3ccc(Cl)cc3)n2)cc1`: the GI50 is 4.54 µM in test [1]; 5.05 µM in test [2]; 2.58 µM in test [3]; 4.04 µM in test [4]; 4.09 µM in test [5]; 3.88 µM in test [6]. Moreover, the GI50 in test [7] is 6.57 µM. In addition, the TGI in test [1] was 10.8 µM; in test [2], 18.8 µM; in test [3] it was > 11.3 µM; in test [4], 8.21 µM; in test [5], 7.9 µM; in test [6] it was 8.12 µM. Also, the TGI in test [7] is > 18.7 µM.
For the compound `CCCCC[C@H]1C/C=C2/C(=O)C=C[C@@H]2C/C=C\CCCC(=O)O1`, the GI50 was 0.164 µM in test [1]; 0.147 µM in test [2]; 0.403 µM in test [3]; 0.169 µM in test [4]; 0.182 µM in test [5]; 0.364 µM in test [6]. In addition, the GI50 in test [7] was 0.479 µM. Moreover, the TGI stood at 0.489 µM in test [1]; 0.468 µM in test [2]; 16.8 µM in test [3]; 0.588 µM in test [4]; 0.664 µM in test [5]; 6.11 µM in test [6]. Also, in test [7], the TGI is 7.45 µM.

(Values after PubChem BioAssay (NCI).)
